From patent US10369145B2, “Coumarin derivatives and methods of use in treating hyperproliferative diseases” (DISCOVERYBIOMED, INC., priority 2013, dated 2019)

Experiments:
[1] = system: MOLT-4; assay: NCI 60 panel: MOLT-4 (Leukemia); type: cell-based
Description: (§1) TGI means the drug concentration resulting in total growth inhibition or “cytostasis.” LC50 is the concentration of drug resulting in a 50% reduction in the measured cytosolic ATP at the end of the drug treatment as compared to that at the beginning, indicating a net loss of cells following treatment (cytotoxicity).

[2] = system: NCI-H322M; assay: NCI 60 panel: NCI-H322M (Non-Small Cell Lung Cancer); type: cell-based
Description: as §1

[3] = system: NCI-H522; assay: NCI 60 panel: NCI-H522 (Non-Small Cell Lung Cancer); type: cell-based
Description: as §1

[4] = system: HCC-2998; assay: NCI 60 panel: HCC-2998 (Colon Cancer); type: cell-based
Description: as §1

[5] = system: HT29; assay: NCI 60 panel: HT29 (Colon Cancer); type: cell-based
Description: as §1

[6] = system: SW-620; assay: NCI 60 panel: SW-620 (Colon Cancer); type: cell-based
Description: as §1

[7] = system: SF-268; assay: NCI 60 panel: SF-268 (CNS Cancer); type: cell-based
Description: as §1

[8] = system: SF-295; assay: NCI 60 panel: SF-295 (CNS Cancer); type: cell-based
Description: as §1

[9] = system: MDA-MB-435; assay: NCI 60 panel: MDA-MB-435 (Melanoma); type: cell-based
Description: as §1

[10] = system: UACC-257; assay: NCI 60 panel: UACC-257 (Melanoma); type: cell-based
Description: as §1

[11] = system: OVCAR-8; assay: NCI 60 panel: OVCAR-8 (Ovarian Cancer); type: cell-based
Description: as §1

[12] = system: SN12C; assay: NCI 60 panel: SN12C (Renal Cancer); type: cell-based
Description: as §1

[13] = system: MCF7; assay: NCI 60 panel: MCF7 (Breast Cancer); type: cell-based
Description: as §1

[14] = system: MDA-MB-468; assay: NCI 60 panel: MDA-MB-468 (Breast Cancer); type: cell-based
Description: as §1

[15] = system: FaDu; assay: Complementary DBM in vitro profiling: FaDu (Hypopharyngeal Cancer); type: cell-based
Method: The compounds described herein are effective for inhibiting cellular proliferation in hyperproliferative cell types. To study the effects of these compounds, an assay was developed to differentiate the effects of the compounds on proliferating versus confluent cells. The assay design generates a proliferating density 24 hours after seeding and provides a 3-day active cell growth/doubling window in which to gauge the anti-proliferative effect of the compounds described herein. […] In this 3-day growth window, cell number increases with daily doublings across the 72-hour period (see FIG. 1).
In each assay design, compounds were added at the 24-hour timepoint after cell seeding. The effect of the compounds, relative to vehicle control and to VelCade (a proteasome inhibitor approved in the U.S. for treating relapsed multiple myeloma and mantle cell lymphoma) as a positive control, was assessed across the 3-day growth window for proliferating cells and on an already near confluent culture of cells for the same time period. Normal cells were handled in the same manner, with some adjustment of seeding density needed in select cases. […]
Cell number at the end of the assay was determined using the CELLTITER-GLO Luminescent Cell Viability Assay (Promega; Madison, Wis.). The CELLTITER-GLO Luminescent Cell Viability Assay is a homogeneous method of determining the number of viable cells in culture based on quantitation of the ATP present, an indicator of metabolically active cells. IC50 values were calculated. […]
For a typical screening experiment to identify the compounds, cells were seeded into 96- or 384-well microtiter plates at plating densities pre-determined for each cell line to ensure drug exposure occurs during the proliferative phase well before confluency is reached. […] Values were calculated for each of these three parameters if the level of activity was reached; however, if the effect was not reached or was exceeded, the value for that parameter was expressed as greater or less than the maximum or minimum concentration tested.

[16] = system: hyperproliferative PKD cells (cloned polycystic kidney tissue cells); assay: Concentration-response in primary cultures cloned from cystic kidney tissue; type: cell-based; details: hyperproliferative PKD cells, 72 hour treatment
Method: The concentration-response effects of Compound DBM 228, Compound DBM 308, Compound DBM 101, and Compound DBM 328 were determined in primary cultures derived as ‘clones’ from cystic versus non-cystic kidney tissue. CRC graphs, IC50 values, and the percent maximum inhibition versus lowest doses without effect were calculated with GraphPad Prism software. […] There was also a marked separation in effect between hyperproliferative PKD cells (FIG. 5A and Table 3) and WT cells (FIG. 5B and Table 4).

[17] = system: tubulin; assay: Biochemical tubulin polymerization; details: FIG. 11C
Method: Following 24 hours of treatment with Compound DBM 228, Compound DBM 318, and Compound DBM 328, caspase 3/7 activation in U251MG cells was determined. The detection of caspase 3/7 activation in U251MG cells indicates activation of apoptosis. Tubulin polymerization was determined for Compounds DBM 227, DBM 228, DBM 308, DBM 318, DBM 701, DBM 707, DBM 715, paclitaxel, vincristine, and negative control Compound DBM 328. […] Paclitaxel served as polymerization enhancer control and vincristine served as polymerization inhibitor control.

[18] = system: c-Jun phosphorylation; assay: Intracellular signaling molecule phospho-array; type: cell-based; details: human hyperproliferative GBM cancer cells; effect requiring 24 hours
Method: An intracellular signaling molecule phospho-array was performed in compound-treated human hyperproliferative GBM cancer cells and in vehicle-treated human hyperproliferative GBM cancer cells. The tested compounds included Compound DBM 228 (002-N8-28), Compound DBM 328 (003-8COOH), and Compound DBM 308 (003-8Cl). DMSO served as the vehicle control. The numbers reflect pairs of spots in the typical dot blots that correspond to major kinases and other signaling proteins. Compound DBM 328 (003-8COOH) is a negative control for this array experiment to complement the DMSO vehicle control.

[19] = read-out: LC50 (the source's name)

## COc1ccccc1Nc1nc(-c2cc3cccc(N)c3oc2=O)cs1 [Compound DBM 228]
[1]
  GI50: 168 nM
  TGI: 17800 nM
[1]; [19]
  CC50: > 100000 nM
[2]
  GI50: 672 nM
  TGI: 25900 nM
[2]; [19]
  CC50: 93300 nM
[3]
  GI50: 24.7 nM
  TGI: 94 nM
[3]; [19]
  CC50: > 100000 nM
[4]
  GI50: 1050 nM
  TGI: 16500 nM
[4]; [19]
  CC50: > 100000 nM
[5]
  GI50: 308 nM
  TGI: 1600 nM
[5]; [19]
  CC50: 24700 nM
[6]
  GI50: 64 nM
  TGI: >100000 nM
[6]; [19]
  CC50: > 100000 nM
[7]
  GI50: 770 nM
  TGI: 55300 nM
[7]; [19]
  CC50: > 100000 nM
[8]
  GI50: 42.4 nM
  TGI: 1490 nM
[8]; [19]
  CC50: 41500 nM
[9]
  GI50: 23.1 nM
  TGI: 67.9 nM
[9]; [19]
  CC50: 69500 nM
[10]
  TGI: 33700 nM
[10]; [19]
  CC50: > 100000 nM
[11]
  GI50: 310 nM
  TGI: 13200 nM
[11]; [19]
  CC50: > 100000 nM
[12]
  GI50: 526 nM
  TGI: >100000 nM
[12]; [19]
  CC50: > 100000 nM
[13]
  GI50: 54.5 nM
  TGI: >100000 nM
[13]; [19]
  CC50: > 100000 nM
[14]
  GI50: 47.1 nM
  TGI: 800 nM
[14]; [19]
  CC50: 60900 nM
[15]
  GI50: 1400 nM
  TGI: 8740 nM
[15]; [19]
  CC50: 27500 nM
[16]
  IC50: 690 nM
  Max inhibition: 61%
[17]
  effect on biochemical tubulin polymerization, in words: modestly inhibited
[18]
  effect on c-Jun phosphorylation, in words: potentiation of c-Jun phosphorylation
